Laboratory results: patent US20110212466A1, “Thiol-Modified Surface Immobilization Article And Method” (priority 2009, published 2011)

Tested on: carbonic anhydrase (CAII)
Assay: furosemide binding on immobilized CAII, Epic biosensor (Example 3)
Conditions: cystine in combination with glycine
Method: Step 3. Binding of protein inhibitor: The plate was equilibrated at ambient (25° C.) temperature for about 30 min before rinsing with PBS (on Biomek, following standard rinsing protocol). The plate was centrifuged and soaked in 0.1% DMSO in PBS for about 4 h at ambient temperature.
The plate was then read in the Epic® instrument for 20 min.

- binding: over 10 pm
Structure (SMILES): NS(=O)(=O)c1cc(C(=O)O)c(NCc2ccco2)cc1Cl [furosemide]
